# Test results as given in patent publication US20160287602A1, “METHODS FOR PROMOTING MOTOR NEURON SURVIVAL” (PRESIDENT AND FELLOWS OF HARVARD COLLEGE, priority 2013, published 2016).
# Entries after “also recorded” stand apart in the source; their conditions may differ.
# Assays:
# [1] = tested on: wild-type (Hb9::GFP) mouse ESC derived MNs; assay: MN survival after trophic factor withdrawal, mixed culture; type: cell-based; settings: for survival of MNs (number of surviving MNs): trophic factor withdrawal, 3 days, wild-type Hb9::GFP MNs
# Source text: In the present study, we have screened highly specific small molecule kinase inhibitors to identify those which could promote MN survival. For the screen, we generated MNs from wild-type (Hb9::GFP) and SOD1^G93A (SOD1^G93A/Hb9::GFP) mouse ESCs using published protocols (Di Giorgio et al., 2007). We withdrew trophic factors as a standard method to induce MN death. Cell plating density as well as timing for initiation and duration of trophic factor withdrawal were used exactly as published to achieve ˜80% MN death in 3 days (FIG. 1A) (Yang et al., 2013). […] We continued to work with this compound class as it reproducibly promoted survival of both MNs types and the effect was robust. We further reasoned that since this compound class promoted survival of both MN types, the probability of its working in other contexts such as on human MNs and in the ALS mouse model was maximum. […]
# (§1) Trophic factors were removed and ZM447439 was added to the cultures as previously and MN survival was analyzed on day 7, 14 & 21.
# [2] = tested on: SOD1^G93A (SOD1^G93A/Hb9::GFP) mouse ESC derived MNs; assay: as above; type: cell-based; settings: trophic factor withdrawal, 3 days; SOD1^G93A/Hb9::GFP MNs
# Source text: In the present study, we have screened highly specific small molecule kinase inhibitors to identify those which could promote MN survival. For the screen, we generated MNs from wild-type (Hb9::GFP) and SOD1^G93A (SOD1^G93A/Hb9::GFP) mouse ESCs using published protocols (Di Giorgio et al., 2007). We withdrew trophic factors as a standard method to induce MN death. Cell plating density as well as timing for initiation and duration of trophic factor withdrawal were used exactly as published to achieve ˜80% MN death in 3 days (FIG. 1A) (Yang et al., 2013). […] We continued to work with this compound class as it reproducibly promoted survival of both MNs types and the effect was robust. We further reasoned that since this compound class promoted survival of both MN types, the probability of its working in other contexts such as on human MNs and in the ALS mouse model was maximum.
# High expression of Aurora kinases is associated with various types of cancer (Sen et al., 1997; Reichardt et al., 2003; Tchatchou et al., 2007) and there are many AKIs including VX-680 and ZM447439 that are in clinical trials for anti-cancer drug development.
# as §1
# [3] = tested on: FACS purified Hb9::GFP MNs; assay: MN survival after trophic factor withdrawal, FACS purified MN culture; type: cell-based, mouse; settings: FACS purified MN cultures, trophic factors withdrawn, FIG. 1C
# Source text: ESC-derived MN culture achieves ˜30%-50% MN differentiation efficiency and is therefore highly heterogeneous. To examine whether AKIs specifically act in a cell-autonomous or non-cell-autonomous manner, we established a highly enriched MN culture through FACS purification based on Hb9::GFP reporter expression. […] Next, we asked whether AKIs exert their survival promoting effect only cell-autonomously or whether they also function non-cell-autonomously to rescue MN death. To address this question we produced astrocyte conditioned medium (ACM) by incubating primary murine astrocytes with AKIs (VX-680 and ZM447439). The ACM was then dialyzed using a dialyzer with pore size appropriate for eliminating residual AKIs.
# [4] = tested on: wild-type (Hb9::GFP) mouse ESC derived MNs; settings: previous small molecule survival screen (Yang et al., 2013); cited from earlier work
# [5] = tested on: SOD1^G93A (SOD1^G93A/Hb9::GFP) mouse ESC derived MNs; settings: previous small molecule survival screen (Yang et al., 2013); cited from earlier work
# [6] = tested on: human iPSC derived MNs (healthy control, SOD1, TDP-43, C90RF72); settings: human MNs derived from wild-type and ALS-patient-iPSCs (Yang et al., 2013); cited from earlier work
# [7] = ALS (Miller et al., 2007); cited from earlier work
# Hb9::GFP MNs = assay: Number of synapses per MN (synapsin/PSD-95 co-localization, automated imager); type: cell-based, mouse
# Source text: (§2) To examine whether MNs kept alive by AKIs maintain morphological integrity we carried out a series of analyses on surviving MNs in the absence of trophic factors. […] We also used an automated imager to analyze the number of synapses per MN by counting co-localized regions positive for the presynaptic marker synapsin and the postsynaptic marker PSD-95.
# SOD1^G93A/Hb9::GFP MNs = assay: as above; type: cell-based, mouse
# Source text: as §2
# [8] = tested on: synaptophysin in Hb9::GFP MN cultures; assay: Synaptophysin immunoblotting; type: cell-based, mouse
# [9] = tested on: synaptophysin in SOD1^G93A/Hb9::GFP MN cultures; assay: Synaptophysin immunoblotting; type: cell-based, mouse
# Prkarlb = assay: Prkar1b immunostaining in surviving MNs; type: cell-based, mouse; settings: absence of TFs
# [10] = tested on: phosphorylated BAD (pBAD); assay: Phosphorylated BAD immunostaining in surviving MNs; type: cell-based, mouse; settings: absence of TFs
# MNs = assay: Lentivirus knockdown of Prkarlb, MN survival; type: cell-based, mouse
# Source text: (§3) Next we sought to investigate the mechanism by which AKIs promote MN survival. To evaluate this comprehensively we performed microarray analysis to compare gene expression between MNs cultured with: 1) Trophic factors (+TF), 2) No trophic factors (−TF), 3) VX-680 in the absence of TFs, and 4) ZM447439 in the absence of TFs. […] Gene expression was compared between +TF and −TF, VX-680 and −TF, and ZM447439 and −TF. With a cut off of more than 3 fold difference, there were 85 genes overlapping in all three comparison in Hb9::GFP MNs and 57 in SOD1^G93A/Hb9::GFP MNs. We found 39 overlapping genes when we compared both types of MNs (FIG. 5B). […] We analyzed the shortlist of 39 genes by using DAVID functional annotation bioinformatics microarray analysis software to find the potential pathways involved in MN survival. […] PKA is known to phosphorylate BAD protein, leading to increased cell survival (Jose M. LIZCANO et al., 2000; Julian Downward et al., Nature cell biology 1999; Komaki S et al., Neurosci Lett 2012). […] We further investigated this pathway by lentivirus knockdown of Prkarlb.
# [11] = tested on: Hb9::GFP and SOD1^G93A/Hb9::GFP MNs; assay: Microarray analysis of gene expression in MNs; type: cell-based, mouse; settings: compound in the absence of TFs versus -TF
# Source text: as §3
# [12] = tested on: HuES-3/Hb9::GFP human ESC derived MNs; assay: Human ESC derived MN survival after trophic factor withdrawal; type: cell-based; settings: trophic factors withdrawn; AraC pre-treated cultures
# Source text: We generated MNs from a human ESC line expressing an HB9::GFP transgene [HuES-3/Hb9::GFP (Di Giorgio et al., 2008)]. Human ESC derived MN cultures were pre-treated with AraC to eliminate progenitor cells. We induced MN death by again withdrawing trophic factors. […] We also investigated the toxic effect of SOD1^G93A astrocytes on human ESC derived MN survival. We found significant death of human MNs cultured on mutant astrocytes.
# [13] = tested on: human iPSC derived MNs (healthy control, SOD1, TDP-43, C90RF72); assay: Human iPSC derived MN survival; type: cell-based; settings: all human iPSC derived MN cultures; AraC treated
# Source text: We produced MNs from human iPSCs lines including a healthy control, two ALS patients expressing confirmed mutations in SOD1 (Boulting et al., 2011), two with mutations in TDP-43 and one in C90RF72. We treated these cultures with AraC to minimize the number of proliferating progenitors. […] We also examined the effect of SOD 1^G93A astrocytes co-culture on iPSC derived MNs. We found no toxic effect on survival in any of the patient iPSC derived MNs, but we did observe decreased MN survival in the control iPSC derived MNs. […] We also looked at the effect of AKIs on morphology and synapse formation. […] In addition, by immunoblot we observed that ZM447439 enhanced synaptic protein, synaptophysin, expression in both the presence and absence of trophic factors.
# [14] = ALS drug candidates; cited from earlier work
structure (smiles),measurement,setting,value
"COc1cc2ncnc(Nc3ccc(NC(=O)c4ccccc4)cc3)c2cc1OC.Cl [4-4-Ben, N-[4-[(6,7-Dimethoxy-4-quinazolinyl)amino]phenyl] benzamide Hydrochloride]",survival of MNs (number of surviving MNs),[1],consistently increased the survival of MNs
same,survival of MNs (number of surviving MNs),[2],consistently increased the survival of MNs
same,MN survival,[3],rescued MN survival in a dose dependent fashion
O=C1Cc2c([nH]c3ccc(Br)cc23)-c2ccccc2N1 [Kenpaullone],healthy survival of MNs,[4],impressive ability to prolong the healthy survival
same,healthy survival of MNs,[5],impressive ability to prolong the healthy survival
same,survival of human MNs,[6],able to improve the survival
Nc1nc2ccc(OC(F)(F)F)cc2s1 [Riluzole],functional improvement,[7],very little functional improvement; also recorded: little functional improvement
"Cc1cc(Nc2cc(N3CCN(C)CC3)nc(Sc3ccc(NC(=O)C4CC4)cc3)n2)[nH]n1 [VX-680, Tozasertib]","survival effect in dose dependent assay, comparison among AKIs","[1]; mixed MN culture, FIG. 1B",most effective and potent in promoting MN survival
same,survival of MNs (number of surviving MNs),[1],consistently increased the survival of MNs; also recorded: most potent and robust at increasing survival
same,survival of MNs (number of surviving MNs),[2],consistently increased the survival of MNs; also recorded: most potent and robust at increasing survival
same,MN survival,[3],rescued MN survival in a dose dependent fashion
same,number of synapses per MN,"Hb9::GFP MNs; absence of trophic factors, Hb9::GFP MNs",preserved the number of synapses
same,number of synapses per MN,Hb9::GFP MNs; neurotrophin containing medium,increased the number of synapses per MN
same,number of synapses per MN,"SOD1^G93A/Hb9::GFP MNs; absence of trophic factors, SOD1^G93A/Hb9::GFP MNs",preserved the number of synapses
same,number of synapses per MN,SOD1^G93A/Hb9::GFP MNs; neurotrophin containing medium,increased the number of synapses per MN
same,expression of synaptic protein synaptophysin,[8],increased expression
same,expression of synaptic protein synaptophysin,[9],increased expression
same,levels of Prkarlb,Prkarlb,increased levels
same,levels of phosphorylated BAD (pBAD),[10],increased levels
same,MN survival on knocking down Prkarlb in the presence of the compound,MNs,effectively decreased MN survival
same,"expression of genes related to synapse formation (Syt1, Snap25 and Sv2c, Map2 and Dcx)",[11],upregulated
same,human MN survival,[12],rescued human MN death
same,MN survival,[13],substantially increase MN survival
CCCN[C@@H]1CCc2nc(N)sc2C1 [dexpramipexole],outcome of phase III clinical trials,[14],failed
CC(C)CCC[C@@H](C)[C@H]1CC[C@H]2[C@@H]3CCC4=CC(=NO)CC[C@]4(C)[C@H]3CC[C@]12C [olesoxime],outcome of phase III clinical trials,[14],failed
